Measurements published in patent publication US10287301B2 (Achillion Pharmaceuticals, Inc., priority 2015, dated 2019).

The compounds below were run against Human Factor D (Homo sapiens (Human), UniProt P00746) (assay: Human Factor D Assay). Settings: not given.
Format: biochemical
Method in brief: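 Serum-purified human Factor D (80 nM final) was preincubated with test compound at various concentrations for 5 min at room temperature in 50 mM Tris, 1M NaCl, pH 7.5. Z-L-Lys-SBzl and DTNB were then added at 100 μM each. IC50 came from nonlinear regression of reaction rates versus compound concentration.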

Sequence of Human Factor D (P00746 26-253): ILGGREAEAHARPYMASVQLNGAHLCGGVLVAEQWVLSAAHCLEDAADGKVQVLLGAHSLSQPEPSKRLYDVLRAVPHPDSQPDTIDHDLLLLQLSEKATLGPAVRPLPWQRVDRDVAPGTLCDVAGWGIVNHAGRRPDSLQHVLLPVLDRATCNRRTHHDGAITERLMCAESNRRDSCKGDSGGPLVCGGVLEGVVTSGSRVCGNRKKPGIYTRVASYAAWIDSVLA

Structure (SMILES) | IC50
CC(=O)c1cn(CC(=O)N2C[C@H](F)C[C@H]2C(=O)NC2CCCN(c3cc(C)ccc3F)C2=O)c2ccc(-c3ccnnc3)cc12 (stereo partly drawn) [Compound 125, (2S,4R)-1-(2-(3-acetyl-5-(pyridazin-4-yl)-1H-indol-1-yl)acetyl)-4-fluoro-N-(1-(2-fluoro-5-methylphenyl)-2-oxopiperidin-3-yl)pyrrolidine-2-carboxamide] | 1000 to 10000 nM
NC(=O)c1nn(CC(=O)N2C[C@H](F)C[C@H]2C(=O)NCc2ccccn2)c2ccc(-c3ccnnc3)cc12 [Compound 139, 1-(2-((2S,4R)-4-fluoro-2-(pyridin-2-ylmethylcarbamoyl)pyrrolidin-1-yl)-2-oxoethyl)-5-(pyridazin-4-yl)-1H-indazole-3-carboxamide] | 1000 to 10000 nM
CC(=O)c1cn(CC(=O)N2C[C@H](F)C[C@H]2C(=O)NC2CCCN(c3cnn(C)c3)C2)c2ccc(-c3ccnnc3)cc12 (stereo partly drawn) [Compound 140, (2S,4R)-1-(2-(3-acetyl-5-(pyridazin-4-yl)-1H-indol-1-yl)acetyl)-4-fluoro-N-(1-(1-methyl-1H-pyrazol-4-yl)piperidin-3-yl)pyrrolidine-2-carboxamide] | 1000 to 10000 nM

Same assay, conditions: Human Factor D 80 nM, substrate Z-L-Lys-SBzl; read-out: IC50

Structure (SMILES) | IC50
CC(=O)c1cn(CC(=O)N2C[C@H](F)C[C@H]2C(=O)Nc2cccc(Br)n2)c2ccc(-c3ccc(C)nc3)cc12 [Compound 120, (2S,4R)-1-(2-(3-acetyl-5-(6-methylpyridin-3-yl)-1H-indol-1-yl)acetyl)-N-(6-bromopyridin-2-yl)-4-fluoropyrrolidine-2-carboxamide] | < 1000 nM
CC(=O)c1cn(CC(=O)N2C[C@H](F)C[C@H]2C(=O)Nc2cccc(-c3ccccc3Cl)c2F)c2ccc(-c3cnnc(C)c3)cc12 [Compound 121, (2S,4R)-1-(2-(3-acetyl-5-(6-methylpyridazin-4-yl)-1H-indol-1-yl)acetyl)-N-(2′-chloro-2-fluorobiphenyl-3-yl)-4-fluoropyrrolidine-2-carboxamide] | < 1000 nM
COc1cc(C)cc2c1OCCC2NC(=O)[C@@H]1C[C@@H](F)CN1C(=O)Cn1nc(C(N)=O)c2cc(-c3ccnnc3)ccc21 (stereo partly drawn) [Compound 122, 1-(2-((2S,4R)-4-fluoro-2-(8-methoxy-6-methylchroman-4-ylcarbamoyl)pyrrolidin-1-yl)-2-oxoethyl)-5-(pyridazin-4-yl)-1H-indazole-3-carboxamide] | > 10000 nM
COc1cc(C)cc2c1OCCC2NC(=O)[C@@H]1C[C@@H](F)CN1C(=O)Cn1cc(C(C)=O)c2cc(-c3ccnnc3)ccc21 (stereo partly drawn) [Compound 123, (2S,4R)-1-(2-(3-acetyl-5-(pyridazin-4-yl)-1H-indol-1-yl)acetyl)-4-fluoro-N-(8-methoxy-6-methylchroman-4-yl)pyrrolidine-2-carboxamide] | > 10000 nM
CC(=O)c1cn(CC(=O)N2C[C@H](F)C[C@H]2C(=O)Nc2cccc(Cl)c2C(F)(F)F)c2ccc(-c3ccnnc3)cc12 [Compound 126, (2S,4R)-1-(2-(3-acetyl-5-(pyridazin-4-yl)-1H-indol-1-yl)acetyl)-N-(3-chloro-2-(trifluoromethyl)phenyl)-4-fluoropyrrolidine-2-carboxamide] | > 10000 nM
CC(=O)c1cn(CC(=O)N2C[C@H](F)C[C@H]2C(=O)Nc2cncc(Br)n2)c2ccc(-c3ccnnc3)cc12 [Compound 127, (2S,4R)-1-(2-(3-acetyl-5-(pyridazin-4-yl)-1H-indol-1-yl)acetyl)-N-(6-bromopyrazin-2-yl)-4-fluoropyrrolidine-2-carboxamide] | < 1000 nM
NC(=O)c1nn(CC(=O)N2C[C@H](F)C[C@H]2C(=O)Nc2cncc(Br)n2)c2ccc(-c3ccnnc3)cc12 [Compound 128, 1-(2-((2S,4R)-2-(6-bromopyrazin-2-ylcarbamoyl)-4-fluoropyrrolidin-1-yl)-2-oxoethyl)-5-(pyridazin-4-yl)-1H-indazole-3-carboxamide] | < 1000 nM
NC(=O)c1nn(CC(=O)N2C[C@H](F)C[C@H]2C(=O)Nc2ccc3ccccc3c2)c2ccc(-c3ccnnc3)cc12 [Compound 131, 1-(2-((2S,4R)-4-fluoro-2-(naphthalen-2-ylcarbamoyl)pyrrolidin-1-yl)-2-oxoethyl)-5-(pyridazin-4-yl)-1H-indazole-3-carboxamide] | > 10000 nM
CC(=O)c1cn(CC(=O)N2[C@@H]3C[C@@H]3C[C@H]2C(=O)Nc2cccc(Br)n2)c2ccc(-c3cnc(C)nc3)cc12 [Compound 132, (1R,3S,5R)-2-(2-(3-acetyl-5-(2-methylpyrimidin-5-yl)-1H-indol-1-yl)acetyl)-N-(6-bromopyridin-2-yl)-2-azabicyclo[3.1.0] hexane-3-carboxamide] | < 1000 nM
CC(=O)c1cn(CC(=O)N2[C@@H]3C[C@@H]3C[C@H]2C(=O)Nc2cccc(-c3ccccc3Cl)c2F)c2ccc(-c3cnc(C)nc3)cc12 [Compound 133, (1R,3S,5R)-2-(2-(3-acetyl-5-(2-methylpyrimidin-5-yl)-1H-indol-1-yl)acetyl)-N-(2′-chloro-2-fluorobiphenyl-3-yl)-2-azabicyclo[3.1.0] hexane-3-carboxamide] | < 1000 nM
CC(=O)c1cn(CC(=O)N2[C@@H]3C[C@@H]3C[C@H]2C(=O)NCc2cccc(Cl)c2F)c2ccc(-c3cnc(C)nc3)cc12 [Compound 134, (1R,3S,5R)-2-(2-(3-acetyl-5-(2-methylpyrimidin-5-yl)-1H-indol-1-yl)acetyl)-N-(3-chloro-2-fluorobenzyl)-2-azabicyclo[3.1.0] hexane-3-carboxamide] | < 1000 nM
CC(=O)c1cn(CC(=O)N2C[C@H](F)C[C@H]2C(=O)NCc2cccc(Cl)c2F)c2ccc(-c3cnc(C)nc3)cc12 [Compound 135, (2S,4R)-1-(2-(3-acetyl-5-(2-methylpyrimidin-5-yl)-1H-indol-1-yl)acetyl)-N-(3-chloro-2-fluorobenzyl)-4-fluoropyrrolidine-2-carboxamide] | < 1000 nM
COc1ncc(-c2ccc3c(c2)c(C(C)=O)cn3CC(=O)N2C[C@H](F)C[C@H]2C(=O)NCc2cccc(Cl)c2F)cn1 [Compound 136, (2S,4R)-1-(2-(3-acetyl-5-(2-methoxypyrimidin-5-yl)-1H-indol-1-yl)acetyl)-N-(3-chloro-2-fluorobenzyl)-4-fluoropyrrolidine-2-carboxamide] | < 1000 nM
CC(=O)c1cn(CC(=O)N2C[C@H](F)C[C@H]2C(=O)Nc2cccc(Cl)n2)c2ccc(-c3cnc(C)nc3)cc12 [Compound 137, (2S,4R)-1-(2-(3-acetyl-5-(2-methylpyrimidin-5-yl)-1H-indol-1-yl)acetyl)-N-(6-chloropyridin-2-yl)-4-fluoropyrrolidine-2-carboxamide] | < 1000 nM
CC(=O)Nc1ncc(-c2ccc3c(c2)c(C(C)=O)cn3CC(=O)N2C[C@H](F)C[C@H]2C(=O)Nc2cccc(-c3ccccc3Cl)c2F)cn1 [Compound 138, (2S,4R)-1-(2-(5-(2-acetamidopyrimidin-5-yl)-3-acetyl-1H-indol-1-yl)acetyl)-N-(2′-chloro-2-fluorobiphenyl-3-yl)-4-fluoropyrrolidine-2-carboxamide] | < 1000 nM
Cn1cc(N2CCCC(NC(=O)[C@@H]3C[C@@H](F)CN3C(=O)Cn3nc(C(N)=O)c4cc(-c5ccnnc5)ccc43)C2)cn1 (stereo partly drawn) [Compound 141, 1-(2-((2S,4R)-4-fluoro-2-(1-(1-methyl-1H-pyrazol-4-yl)piperidin-3-ylcarbamoyl)pyrrolidin-1-yl)-2-oxoethyl)-5-(pyridazin-4-yl)-1H-indazole-3-carboxamide] | > 10000 nM
